Test results: article PMC6150365, “Simultaneous Determination of Seven Components in Rat Plasma by the UPLC-MS/MS Method and Application of Pharmacokinetic Studies to SimiaoYong’an Decoction” (Molecules : A Journal of Synthetic Chemistry and Natural …, 2017)

Assay: Pharmacokinetic study in rats after oral administration of SYD extract and its single and combined TCM extracts (UPLC-MS/MS of plasma)
Details: male, Sprague-Dawley, rat, plasma, po, n = 6; for AUC(0-t) / AUC(0-inf) / MRT last / MRT inf / Tmax / Cmax: rat plasma; for MRT last: MRT(0–t); for MRT inf: MRT(0–∞)
[1] = 2.49 g/kg, oral SN extract 2.49 g/kg
[2] = 3.38 g/kg extract (6.67 g/kg as herbs), oral SN + GU extract
[3] = 3.38 g·kg^−1 (extract), oral SN + GU extract
[4] = 3.98 g/kg extract (8.33 g/kg as herbs), oral SN + AS extract
[5] = 4.5 g·kg^−1 (extract), oral LJ + SN extract
[6] = 4.5 g·kg^−1 extract, oral LJ + SN extract
[7] = 4.73 g/kg, oral LJ + SN + GU extract 4.73 g/kg
[8] = 5.43 g/kg, oral LJ + SN + AS extract 5.43 g/kg
[9] = 8.25 g/kg, oral SYD extract 8.25 g/kg

Description: Pieces of LJ, SN, AS and GU were weighed according to the proportion of 3:3:2:1 with appropriate amounts. The mixed pieces were crushed and decocted two times (60 min each time) with water (1:10 w/v) after being soaked for 60 min. The decoctions were then combined and condensed to the concentration of 0.5 g/mL, after which 95% ethanol was slowly added to the concentrate until a final ethanol concentration of 70% was reached. The SYD solution was set at room temperature overnight and then was filtered. The solvent was recovered, and the residue was dried under reduced pressure. A certain amount of the water extract of SYD was weighed and then dissolved with purified water for intragastric (oral) administration solution. The single herbs and different combination groups such as LJ, SN, AS, GU, LJ + SN, LJ + AS, LJ + GU, SN + AS, SN + GU, AS + GU, LJ + SN + AS, LJ + SN + GU, LJ + AS + GU and SN + AS + GU were prepared according to the procedure of SYD.
Male Sprague-Dawley (SD) rats (body weight 250 ± 10 g) were supplied by the SPF (Beijing) Biotechnology Co., Ltd. (Certificate No.: SCXK 2016-0002, Beijing, China). The animals were maintained in controlled conditions (temperature 20–25 °C, relative humidity 55–60% and 12-h light/12-h dark cycle) with free access to standard laboratory food and water for seven days of acclimation and then fasted for 12 h before each experiment but allowed to drink freely during this time.
Ninety male SD rats were randomly separated into 15 groups and administered a dosage of extract via gastric gavage once per day; detailed information about the oral daily dose of SYD extract and the corresponding single and combined TCMs (LJ, SN, AS, GU, LJ + SN, LJ + AS, LJ + GU, SN + AS, SN + GU, AS + GU, LJ + SN + AS, LJ + SN + GU, LJ + AS + GU, SN + AS + GU and SYD) is listed in Table 4.
Each plasma sample (200 μL) with 50 μL IS solution added was spiked into 100 μL 1% formic acid distilled water solution and then vortexed for 1 min. Protein was precipitated by adding 600 μL of methanol to the mixture. After being vortexed and sonicated, the samples were centrifuged at 25,000 r/min, 4 °C for 10 min. The supernatant of each sample was transferred to a new 2-mL centrifuge tube and evaporated to dryness by N2 at 40 °C. Finally, the residue was dissolved in 100 μL methanol–water (1:1, v/v), followed by centrifugation at 30,000 r/min, 4 °C for 10 min, and 10-μL supernatant aliquots were injected into the UPLC-MS/MS system for analysis.
The SYD was decomposed into 15 groups of compatibility combinations (LJ, SN, AS, GU, LJ + SN, LJ + AS, LJ + GU, SN + AS, SN + GU, AS + GU, LJ + SN + AS, LJ + SN + GU, LJ + AS + GU, SN + AS + GU and SYD). The 15 combinations were weighed according to the proportion of 3:3:2:1 with appropriate amounts and prepared by the method described in “Section 3.2”. Six male SD rats (body weight 250 ± 10 g) of each compatibility group were used in the pharmacokinetic study. After 12-h fast, rats of the different groups were orally administered the respective extract dissolved in saline (Table 4). Venous blood (0.45 mL) was obtained from the orbit vein and collected in heparin-pretreated polypropylene centrifuge tubes at 0.083 h, 0.17 h, 0.25 h, 0.50 h, 0.75 h, 1.0 h, 1.5 h, 2.0 h, 3.0 h, 4.0 h, 6.0 h, 8.0, 12 h and 24 h post-dose. The plasma was separated by centrifugation at 8000 r/min for 10 min and then stored at −20 °C until analysis. The amount of each analyte in the plasma was estimated by UPLC-MS/MS analysis as described in Section 3.5.
Non-compartmental methods using Phoenix WinNonlin 7.0 software provided by the Beijing University of Chinese Medicine were used to analyze plasma concentration versus time profiles and to estimate the following pharmacokinetic parameters: terminal elimination half-lives (t1/2), area under the plasma concentration versus time curve from zero to last sampling time (AUC), and the mean residence time (MRT).

AUC(0-t) [1]: 90 ± 30 ng·h/mL | AUC(0-inf) [1]: 110 ± 20 ng·h/mL | MRT last [1]: 3.03 ± 0.37 h | MRT inf [1]: 18.1 ± 3.41 h | Tmax (2.49 g/kg, Tmax, oral SN extract 2.49 g/kg): 1.25 ± 0.59 h | half-life (2.49 g/kg, t1/2, rat plasma, oral SN extract 2.49 g/kg): 10.7 ± 6.13 h | MRT last [2]: 2.86 ± 1.21 h | MRT inf [2]: 4.99 ± 3.19 h | Tmax (3.38 g/kg extract (6.67 g/kg as herbs), Tmax, oral SN + GU extract): 1.11 ± 0.52 h | half-life (3.38 g/kg extract (6.67 g/kg as herbs), t1/2, rat plasma, oral SN + GU extract): 9.91 ± 4.62 h | AUC(0-t) [3]: 410 ± 60 ng·h/mL | AUC(0-inf) [3]: 420 ± 80 ng·h/mL | Cmax (3.38 g·kg^−1 extract, oral SN + GU extract): 330 ± 50 ng/mL | AUC(0-t) [4]: 450 ± 30 ng·h/mL | AUC(0-inf) [4]: 460 ± 30 ng·h/mL | MRT last [4]: 2.85 ± 1.25 h | MRT inf [4]: 5.01 ± 3.31 h | Tmax (3.98 g·kg^−1, Tmax, oral SN + AS extract): 1.03 ± 0.49 h | half-life (3.98 g·kg^−1, t1/2, rat plasma, oral SN + AS extract): 10 ± 4.72 h | Cmax (3.98 g·kg^−1 extract, oral SN + AS extract): 400 ± 20 ng/mL | MRT last [5]: 2.88 ± 1.23 h | MRT inf [5]: 5.22 ± 3.5 h | Tmax (4.5 g·kg^−1 (extract), Tmax, oral LJ + SN extract): 1.07 ± 0.54 h | half-life (4.5 g·kg^−1 (extract), t1/2, rat plasma, oral LJ + SN extract): 10.3 ± 5.06 h | AUC(0-t) [6]: 390 ± 460 ng·h/mL | AUC(0-inf) [6]: 400 ± 460 ng·h/mL | Cmax [6]: 270 ± 330 ng/mL | AUC(0-t) [7]: 220 ± 90 ng·h/mL | AUC(0-inf) [7]: 230 ± 190 ng·h/mL | Cmax [7]: 150 ± 150 ng/mL | MRT last [7]: 2.95 ± 0.82 h | MRT inf [7]: 7.88 ± 6.88 h | Tmax (4.73 g/kg, Tmax, oral LJ + SN + GU extract 4.73 g/kg): 1.29 ± 0.46 h | half-life (4.73 g/kg, t1/2, rat plasma, oral LJ + SN + GU extract 4.73 g/kg): 11.7 ± 6.52 h | AUC(0-t) [8]: 180 ± 130 ng·h/mL | AUC(0-inf) [8]: 200 ± 130 ng·h/mL | Cmax [8]: 140 ± 130 ng/mL | MRT last [8]: 3.05 ± 0.7 h | MRT inf [8]: 8.16 ± 6.76 h | Tmax (5.43 g/kg, Tmax, oral LJ + SN + AS extract 5.43 g/kg): 1.38 ± 0.44 h | half-life (5.43 g/kg, t1/2, rat plasma, oral LJ + SN + AS extract 5.43 g/kg): 11.8 ± 6.58 h | AUC(0-t) [9]: 300 ± 290 ng·h/mL | AUC(0-inf) [9]: 310 ± 290 ng·h/mL | Cmax [9]: 180 ± 200 ng/mL | MRT last [9]: 3.01 ± 0.69 h | MRT inf [9]: 7.01 ± 5.95 h | Tmax (8.25 g/kg, Tmax, oral SYD extract 8.25 g/kg): 1.38 ± 0.44 h | half-life (8.25 g/kg, t1/2, rat plasma, oral SYD extract 8.25 g/kg): 11.4 ± 6.34 h | Tmax ([…], Tmax, oral SN + AS + GU extract […]): 1.38 ± 0.44 h | half-life ([…], t1/2, rat plasma, oral SN + AS + GU extract […]): 11.6 ± 6.42 h
SMILES: COc1ccc(CCO[C@@H]2O[C@H](CO[C@@H]3OC[C@H](O)[C@H](O)[C@H]3O)[C@@H](OC(=O)/C=C/c3ccc(O)c(OC)c3)[C@H](O[C@@H]3O[C@@H](C)[C@H](O)[C@@H](O)[C@H]3O)[C@H]2O)cc1O [Angoroside C, angoroside C]
